Columns and labels:
[1] = tested on: CT-2A mouse astrocyte cell line; assay: CCK8 cell proliferation assay, CT-2A; format: cell-based; conditions: CCK8, 72 h
Method: Cell viability and drug cytotoxicity were determined by a CCK-8 kit (Cell Counting Kit-8, CK04-13, MD, USA) (CCK8, C0005, Target Molecule Corp., MA, USA) reagent. Cells were seeded 2 × 10^3 per well in the 96-well plate for 24 h, followed by treating at different concentrations of compounds for 72 h. Before the experiment, CCK8 was 10-fold diluted with the culture medium and then incubated with cells for 30 min. Finally, the OD was 450 nm absorbance and calculated for cell viability.

[2] = tested on: Primary Mouse Neuron; assay: CCK8 assay, primary culture neurons; format: cell-based
Method: The human glioblastoma cell lines U87MG (HTB-14), T98G (CRL-1690), and A172 (CRL-1620) were provided by the American Type Culture Collection (Manassas, VA, USA). The patient-derived cell line PT#3 was purified under the approval of the Institutional Review Board of Taipei Medical University (TMU) (No. 201006011). The murine astrocytoma cell line CT-2A (SCC194) was purchased from Merch Millipore (MA, USA). TMZ-resistant cell lines were established as described previously.[40] All cell lines were cultured in Dulbecco’s modified Eagle’s medium basal medium (Cat# 10-013-CM, CORNING, MA, USA), supplemented with 10% fetal bovine serum (Cat# 12676029, Thermo Fisher Scientific, MA, USA), 100 units/mL penicillin, and 100 μg/mL streptomycin (Cat# 15140122, Thermo Fisher Scientific) at 37 °C in the environment of 95% air and 5% carbon dioxide and maintained resistant characteristic with […] of TMZ (Cat# HY-17364, MedChemExpress, NJ, USA). Primary cultured astrocytes and neurons were derived from E17 embryonic mice. […]
Cell viability and drug cytotoxicity were determined by a CCK-8 kit (Cell Counting Kit-8, CK04-13, MD, USA) (CCK8, C0005, Target Molecule Corp., MA, USA) reagent. […] Finally, the OD was 450 nm absorbance and calculated for cell viability.

[3] = tested on: histones H3 and H4 in U87MGR GBM cells; assay: Western blot of histone H3 and H4 acetylation; format: cell-based, human; conditions: 10 μM, within 1 h
Method: The experimental procedure was performed as described in our previous study.[41] On the day prior to the experiment, […] cells were seeded into each well of a 6-well plate. The following day, the cells were washed twice with PBS and treated with 10 μM compound 1. The acetylation status of histones H3 and H4, DNA repair, and protein stability assay were assessed at 0–24 h post-treatment. The antibody models and dilution ratios used are detailed in Table S1. Protein image collection and quantification were done by the ChemiDoc Touch Imaging System (Cat. No. 12676029, Bio-Rad Laboratories, Inc., CA, USA).

## O=C(/C=C/c1ccc(CNC[C@H]2CN(c3ccc(N4CCOCC4)c(F)c3)C(=O)O2)cc1)NO [compound 1, (S,E)-3-(4-((((3-(3-Fluoro-4-morpholinophenyl)-2-oxooxazolidin-5-yl)methyl)ami-no)methyl)phenyl)-N-hydroxyacrylamide]
[1]
  IC50: 5.88 ± 0.63 µM
[2]
  IC50: 65.9 ± 4 µM
[3]
  acetylation in histones H3 and H4: significant induction of acetylation

From article PMC11831592, “Repurposing Linezolid in Conjunction with Histone Deacetylase Inhibitor Access in the Realm of Glioblastoma Therapies” (Journal of Medicinal Chemistry, 2025)
